According to patent publication US20250255850A1, “PHARMACEUTICAL COMPOSITIONS FOR TREATING NEUROLOGICAL CONDITIONS” (YISSUM RESEARCH DEVELOPMENT COMPANY OF THE HEBREW …, priority 2021, published 2025):
≈ marks a conversion by molar mass, not a printed value.

Columns and labels:
CNTNAP2−/− mutant mice [1] = assay: Elevated plus maze test, CNTNAP2-/- mutant mice (M2); format: in vivo, mouse; conditions: 7-NI i.p. 80 mg/kg daily for 10 days, vs untreated mutant mice
Procedure: (§1) Behavioral testing started after 2 hours of treatment.
Elevated plus maze test (see, FIG. 4C): The elevated plus-maze consisted of four arms (30×5 cm), two open, and the other two closed. The platform was made of white plexiglass. The apparatus was elevated 45 cm above the floor. The test, described in, was initiated by placing the mouse on the central platform of the maze, facing one of the open arms, and letting it move freely. Each session lasted 5 min. The time spent in the close and open arms was recorded.
(§2) In another set of tests, the potential effects of inhibiting NO on the cognitive functions was assayed on an additional mouse model of ASD-CNTNAP2−/− mutant mice. The mice were divided into three testing groups: WT mice, CNTNAP2−/− mutant mice (M2), and mutant mice that were administered with 7-NI (M2+7NI).

[2] = even in very high doses; Biopharm. Drug Dispos. 2000, 21, 221-228; cited from earlier work
CNTNAP2−/− mutant mice [3] = assay: Three-chamber sociability test, CNTNAP2-/- mutant mice (M2); format: in vivo, mouse; conditions: 7-NI i.p. 80 mg/kg daily for 10 days, vs untreated M2
Procedure: as §1
(§3) Three-chambered sociability test (see, FIG. 4B): Sociability and preference for social novelty and social recognition were tested in a three-chambered apparatus. The subjected mouse was first placed in the central, neutral chamber and allowed to explore for 10 minutes with all the doors closed. Next, doors were opened and the mouse was allowed to freely explore the other two empty chambers (1 and 2) for an additional 10 minutes. Lack of side preference was confirmed during this habituation.
(§4) Two cylindrical wire cages were placed, one in chamber 1 and the other in chamber 2. For the sociability test, the test animal was introduced to the middle chamber and allowed to adjust for 5 minutes. Then, an unfamiliar mouse was introduced into a wire cage in one of the side-chambers, and the other side-chamber remained empty. The time spent by the test mouse exploring the wire cage with an unfamiliar mouse inside was recorded for 5 minutes.
as §2

[4] = Solubility of 7-NI in PBS; format: physicochemical; conditions: phosphate buffer (PBS), aqueous buffer; 10 mM phosphate buffer pH 7.2
physchem = conditions: organic solvent or mixture
[5] = tested on: Mutant mice (CNTNAP2 and SHANK3 mouse models); assay: Sociability test, 7-NI-treated mutant mice (Example 3); format: in vivo; conditions: 7-NI IP 80 mg/kg/day for 7 days; mutant mice vs vehicle
Procedure: as §1, §3, §4
7-nitroindazole (7-NI) is a selective inhibitor of neuronal nitric oxide synthase. Mutant mice were administered with 7-NI […] (IP), 80 mg/kg/day for 7 days, as described hereinabove. […]

SH-SY5Y cells = assay: Western blot of 3-nitrotyrosine, mTOR signaling pathway components and synaptophysin; format: cell-based, human
Procedure: Human NB SH-SY5Y cells were obtained from the American Type Culture Collection (ATCC) and maintained in Dulbecco's modified Eagle's medium (DMEM) and Ham's F-12 (1:1) supplemented with 10% fetal bovine serum, 2 mM L-glutamine, and 100 U/ml penicillin-G/100 […] streptomycin in a humidified atmosphere (37° C., 5% CO2). Cells were plated onto 25 cm^2 and 75 cm^2 plates at a density of 7.0×10^5 and 2.1×10^6 cells/cm^2 respectively for Western blotting (WB) and 1×10^5 for immunofluorescence. The SH-SY5Y cells were treated with 100 μM 7-nitroindazole (7-NI) for 24 hours (Fujibayashi et al., 2015). This concentration was confirmed in a dose-response experiment (FIG. 14A) using an MTT viability assay.
SH-SY5Y cells were plated in 6 well plates, as well as on 22 mm^2 coverslips at a density of 6.0×10^4 cells/cm^2 and transfected with 20 nM nNOS siRNA (NOSIHSS1072, Invitrogen) for 24 hours, with the use of Lipofectamine RNAi MAX (56530, Invitrogen) according to the manufacturer's protocol. Then cells were washed with phosphate-buffered saline (PBS) and harvested for WB and fixed for immunofluorescence (Fujibayashi et al., 2015).
Cells were lysed in ice-cold RIPA buffer containing 50 mM Tris-HCl, 1% Nonidet P-40, 0.25% sodium deoxycholate, 150 mM NaCl, protease-, and phosphatase inhibitor cocktails, pH 7.4. After sonication, the lysates were centrifuged at 17,000 g for 30 minutes at 4° C., and the supernatant was collected. The protein concentrations were determined with the BCA protein assay. Proteins were resolved by SDS-PAGE, transferred to a PVDF membrane, and probed with the following antibodies: anti-pMTOR (rabbit, diluted 1:1000), anti-mTOR (rabbit, diluted 1:1000), anti-TSC2 (rabbit, diluted 1:1000), anti-nNOS (rabbit, diled 1:1000), anti-pAKT (rabbit, diluted 1:1000), anti-AKT (rabbit, diluted 1:1000), anti-pRPS6 (rabbit, diluted 1:1000), anti-RPS6 (mouse, diluted 1:1000), anti-synaptophysin (mouse, diluted 1:1000), anti-β-actin (rabbit, diluted 1:1000), anti-3-Nitrotyrosine (rabbit, diluted 1:5000) from Abcam. All primary antibodies, except anti-3-Nitrosine, were purchased from Cell Signaling Technology. The blots were then visualized using an enhanced chemiluminescence (ECL) system (Choi et al., 2018).

[6] = 7-NI 100 μM 24 hours or nNOS silencing

solubility [4]: 0.14 mg/mL (≈ 0.858 mM)
solubility (physchem): 32 mg/mL (≈ 196 mM)
Structure (SMILES): O=[N+]([O-])c1cccc2cn[nH]c12 [7-NI, 7-nitroindazole]
anxiety like behaviors (elevated plus maze) (CNTNAP2−/− mutant mice [1]): exhibited less anxiety like behaviors
half-life [2]: ≤ 2 h
time interacting with the stranger mouse (three-chamber sociability) (CNTNAP2−/− mutant mice [3]): spent significantly prolonged time interacting with the stranger mouse
time interacting with the stranger cage (sociability test) [5]: spent significantly more time interacting with the stranger cage
levels of synaptophysin (Syp, Western blot) (SH-SY5Y cells; 7-NI 100 μM 24 hours or genetic ablation of nNOS): significantly decreased the levels of synaptophysin
3-Ntyr levels (Western blot) (SH-SY5Y cells; 7-NI 100 μM 24 hours or nNOS knockdown): halved
levels of TSC-2 (Western blot) (SH-SY5Y cells; [6]): significant increase in the levels of TSC-2
phosphorylation of RPS6 (Western blot) (SH-SY5Y cells; [6]): reduced
phosphorylation of mTOR (Western blot) (SH-SY5Y cells; [6]): decrease in phosphorylation of mTOR
phosphorylation of protein kinase-B (AKT) (Western blot) (SH-SY5Y cells; [6]): reduced
